Results on six molecules are retold here after ChEMBL document CHEMBL1201862, “PubChem BioAssay data set” (2004).

Active and inactive are the calls of the source.

In assay [1] the target is T1, Orexin/Hypocretin receptor type 1 (Homo sapiens, UniProt O43613).
T1 sequence (O43613 whole entry): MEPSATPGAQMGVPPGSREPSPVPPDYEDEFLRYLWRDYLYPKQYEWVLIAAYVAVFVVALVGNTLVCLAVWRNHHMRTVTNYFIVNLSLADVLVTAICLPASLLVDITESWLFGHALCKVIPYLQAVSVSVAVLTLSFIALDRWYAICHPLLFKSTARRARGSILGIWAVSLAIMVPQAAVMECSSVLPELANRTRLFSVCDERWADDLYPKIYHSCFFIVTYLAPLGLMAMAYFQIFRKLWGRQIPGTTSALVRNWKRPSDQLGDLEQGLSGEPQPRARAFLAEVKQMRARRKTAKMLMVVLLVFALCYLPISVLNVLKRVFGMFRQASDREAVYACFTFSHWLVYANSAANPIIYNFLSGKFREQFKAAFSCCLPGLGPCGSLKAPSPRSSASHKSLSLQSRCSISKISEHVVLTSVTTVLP
Briefly: Fluorescence-based cell-based high throughput dose response assay for antagonists of the orexin 1 receptor (OX1R; HCRTR1). [Related pubchem assays (depositor defined):AID434989, AID435008, AID463079, AID485270, AID492963, AID492964, AID492965, AID493232, AID504717, AID504718]. Type of assay: functional.

Assay [2] concerns the target T2, Orexin receptor type 2 (Homo sapiens, UniProt O43614).
T2 sequence (O43614 whole entry): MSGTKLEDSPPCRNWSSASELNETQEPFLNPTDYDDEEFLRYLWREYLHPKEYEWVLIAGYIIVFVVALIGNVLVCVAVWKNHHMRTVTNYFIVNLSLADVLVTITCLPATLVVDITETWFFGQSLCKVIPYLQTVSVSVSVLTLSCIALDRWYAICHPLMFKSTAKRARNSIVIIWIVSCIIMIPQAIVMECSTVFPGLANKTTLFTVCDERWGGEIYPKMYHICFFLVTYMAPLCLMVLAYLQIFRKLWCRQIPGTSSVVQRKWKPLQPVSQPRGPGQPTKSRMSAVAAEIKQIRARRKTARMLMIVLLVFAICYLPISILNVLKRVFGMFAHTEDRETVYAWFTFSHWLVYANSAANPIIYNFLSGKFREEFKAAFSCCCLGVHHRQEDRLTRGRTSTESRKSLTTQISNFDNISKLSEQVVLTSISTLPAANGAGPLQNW
Kind of assay: Counterscreen assay for antagonists of the orexin 1 receptor (OX1R; HCRTR1): Homogeneous Time Resolved Fluorescence (HTRF)-based cell-based dose response assay for antagonists of the orexin 2 receptor (OX2R; HCRTR2), run by assay provider. Type of assay: functional.

Assay [3] is described as follows: Counterscreen for antagonists of the orexin 1 receptor (OX1R; HCRTR1): Fluorescence-based cell-based high throughput dose response assay to identify antagonists of the parental CHO cell line. [Related pubchem assays (depositor defined):AID434989, AID435008, AID463079, AID485270, AID492963, AID492964, AID492965, AID493232, AID504699, AID504701]. Type of assay: functional.

Assay [4] concerns the target T1, Orexin/Hypocretin receptor type 1. Briefly: Homogeneous Time Resolved Fluorescence (HTRF)-based cell-based high throughput dose response assay for antagonists of the orexin 1 receptor (OX1R; HCRTR1). [Related pubchem assays (depositor defined):AID434989, AID435008, AID463079, AID485270, AID492963, AID492964, AID492965, AID493232, AID504717, AID504718]. Type of assay: functional.

The subject of assay [5] is CHO-K1. Briefly: Counterscreen for antagonists of the orexin 1 receptor (OX1R; HCRTR1): Homogeneous time resolved fluorescence (HTRF)-based cell-based dose response assay to identify antagonists of the parental CHO-K1 cell line. [Related pubchem assays (depositor defined):AID434989, AID435008, AID463079, AID485270, AID492963, AID492964, AID492965, AID493232, AID504699, AID504701]. As to conditions: Cricetulus griseus. It counts as functional. (The purpose of a counterscreen is to sort out artefacts and off-target activity.)

The target of assay [6] is T2, Orexin receptor type 2. Kind of assay: Counterscreen assay for antagonists of the orexin 1 receptor (OX1R; HCRTR1): Fluorescence-based cell-based dose response assay for antagonists of the orexin 2 receptor (OX2R; HCRTR2), run by assay provider. It counts as functional.
In assay [7] the target is Latent membrane protein 1 (Human herpesvirus 4 (strain B95-8), UniProt P03230). Kind of assay: TES1-eGFP NF-kB reporter inhibition versus Tet-On dsRED, dose response, selectivity assay for LMP1 NF-kB inhibitor project, imaging, HEK293T, dual-color eGFP/dsRED, cherry-picks (AID 588398). Type of assay: functional, cell-based.
A short description of assay [8]: THP-1 cell cytotoxicity, dose response, cytotoxicity control for non-replicating M. tuberculosis project (AID 489025). It counts as functional.
Assay [9] is described as follows: cells. It counts as functional.
Assay [10] has as its target T3, High affinity choline transporter 1 (Homo sapiens, UniProt Q9GZV3).
T3 sequence (Q9GZV3 whole entry): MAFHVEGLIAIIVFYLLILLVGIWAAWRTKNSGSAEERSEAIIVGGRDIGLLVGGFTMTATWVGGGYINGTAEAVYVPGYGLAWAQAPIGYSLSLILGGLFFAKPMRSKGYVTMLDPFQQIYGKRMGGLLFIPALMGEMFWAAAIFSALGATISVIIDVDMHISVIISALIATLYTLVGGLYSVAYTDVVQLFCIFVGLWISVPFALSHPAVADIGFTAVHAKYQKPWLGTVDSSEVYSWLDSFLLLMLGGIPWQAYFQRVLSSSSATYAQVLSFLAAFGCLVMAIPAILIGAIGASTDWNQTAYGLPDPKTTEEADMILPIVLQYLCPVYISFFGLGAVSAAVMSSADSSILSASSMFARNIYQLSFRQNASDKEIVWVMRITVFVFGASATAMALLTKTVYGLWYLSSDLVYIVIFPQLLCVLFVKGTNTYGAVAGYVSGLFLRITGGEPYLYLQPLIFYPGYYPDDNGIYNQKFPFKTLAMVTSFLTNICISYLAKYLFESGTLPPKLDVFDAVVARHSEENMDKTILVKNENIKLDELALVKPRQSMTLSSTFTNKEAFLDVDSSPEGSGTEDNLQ
Kind of assay: CHT activators, dose response, cell-based, 10-point CRC, membrane potential dye (AID 602376). Type of assay: functional.

In assay [11] the target is T4, Sentrin-specific protease 7 (Homo sapiens, UniProt Q9BQF6).
T4 sequence (Q9BQF6 whole entry): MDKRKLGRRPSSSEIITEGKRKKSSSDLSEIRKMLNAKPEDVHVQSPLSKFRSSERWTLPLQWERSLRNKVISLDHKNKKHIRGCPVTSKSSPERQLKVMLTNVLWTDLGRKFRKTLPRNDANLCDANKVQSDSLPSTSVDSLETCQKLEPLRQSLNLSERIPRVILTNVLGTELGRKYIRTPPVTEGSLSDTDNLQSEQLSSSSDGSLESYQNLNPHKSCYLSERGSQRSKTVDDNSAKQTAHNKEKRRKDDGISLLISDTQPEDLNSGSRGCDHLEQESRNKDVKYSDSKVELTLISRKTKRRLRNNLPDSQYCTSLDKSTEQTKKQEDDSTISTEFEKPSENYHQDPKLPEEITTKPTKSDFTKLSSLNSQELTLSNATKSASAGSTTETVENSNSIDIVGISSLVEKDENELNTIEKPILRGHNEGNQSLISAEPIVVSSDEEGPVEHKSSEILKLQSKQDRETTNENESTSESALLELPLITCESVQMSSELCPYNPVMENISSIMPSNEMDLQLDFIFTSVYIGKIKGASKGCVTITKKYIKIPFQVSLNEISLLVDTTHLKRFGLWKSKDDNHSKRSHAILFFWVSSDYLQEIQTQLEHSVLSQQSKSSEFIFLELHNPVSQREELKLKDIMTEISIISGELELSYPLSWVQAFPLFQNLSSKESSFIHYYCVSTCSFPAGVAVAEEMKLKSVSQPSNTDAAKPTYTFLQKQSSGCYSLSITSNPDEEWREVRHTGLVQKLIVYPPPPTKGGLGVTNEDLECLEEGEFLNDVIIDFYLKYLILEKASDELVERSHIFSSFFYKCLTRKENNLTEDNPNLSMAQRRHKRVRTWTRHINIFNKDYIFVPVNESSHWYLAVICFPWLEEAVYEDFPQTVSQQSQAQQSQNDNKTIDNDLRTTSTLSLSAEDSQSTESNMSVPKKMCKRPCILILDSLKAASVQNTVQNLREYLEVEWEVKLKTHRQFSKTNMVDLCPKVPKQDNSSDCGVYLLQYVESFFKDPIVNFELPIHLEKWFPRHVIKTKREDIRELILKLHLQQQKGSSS
Kind of assay: SENP7 protease inhibitors, SAR follow-up, biochemical, luminescence (AID 504497). Type of assay: functional.

Assay [12] deals with T5, Caspase-3 (Homo sapiens, UniProt P42574).
T5 sequence (P42574 whole entry): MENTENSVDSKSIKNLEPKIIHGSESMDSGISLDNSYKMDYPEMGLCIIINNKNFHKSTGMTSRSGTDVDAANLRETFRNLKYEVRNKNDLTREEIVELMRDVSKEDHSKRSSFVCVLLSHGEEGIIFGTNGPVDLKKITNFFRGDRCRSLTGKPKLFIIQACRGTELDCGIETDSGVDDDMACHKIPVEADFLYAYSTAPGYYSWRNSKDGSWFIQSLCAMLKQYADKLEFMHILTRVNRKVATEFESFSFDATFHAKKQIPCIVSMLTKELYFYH
Kind of assay: SAR Analysis of small molecule inhibitors of Sentrin-specific proteases (SENPs) using a Caspase-3 Selectivity assay. [Related pubchem assays (depositor defined):AID2540, AID2599, AID434973, AID489001]. Type of assay: functional.

For assay [13], the target named is T6, Sentrin-specific protease 6 (Homo sapiens, UniProt Q9GZR1).
T6 sequence (Q9GZR1 whole entry): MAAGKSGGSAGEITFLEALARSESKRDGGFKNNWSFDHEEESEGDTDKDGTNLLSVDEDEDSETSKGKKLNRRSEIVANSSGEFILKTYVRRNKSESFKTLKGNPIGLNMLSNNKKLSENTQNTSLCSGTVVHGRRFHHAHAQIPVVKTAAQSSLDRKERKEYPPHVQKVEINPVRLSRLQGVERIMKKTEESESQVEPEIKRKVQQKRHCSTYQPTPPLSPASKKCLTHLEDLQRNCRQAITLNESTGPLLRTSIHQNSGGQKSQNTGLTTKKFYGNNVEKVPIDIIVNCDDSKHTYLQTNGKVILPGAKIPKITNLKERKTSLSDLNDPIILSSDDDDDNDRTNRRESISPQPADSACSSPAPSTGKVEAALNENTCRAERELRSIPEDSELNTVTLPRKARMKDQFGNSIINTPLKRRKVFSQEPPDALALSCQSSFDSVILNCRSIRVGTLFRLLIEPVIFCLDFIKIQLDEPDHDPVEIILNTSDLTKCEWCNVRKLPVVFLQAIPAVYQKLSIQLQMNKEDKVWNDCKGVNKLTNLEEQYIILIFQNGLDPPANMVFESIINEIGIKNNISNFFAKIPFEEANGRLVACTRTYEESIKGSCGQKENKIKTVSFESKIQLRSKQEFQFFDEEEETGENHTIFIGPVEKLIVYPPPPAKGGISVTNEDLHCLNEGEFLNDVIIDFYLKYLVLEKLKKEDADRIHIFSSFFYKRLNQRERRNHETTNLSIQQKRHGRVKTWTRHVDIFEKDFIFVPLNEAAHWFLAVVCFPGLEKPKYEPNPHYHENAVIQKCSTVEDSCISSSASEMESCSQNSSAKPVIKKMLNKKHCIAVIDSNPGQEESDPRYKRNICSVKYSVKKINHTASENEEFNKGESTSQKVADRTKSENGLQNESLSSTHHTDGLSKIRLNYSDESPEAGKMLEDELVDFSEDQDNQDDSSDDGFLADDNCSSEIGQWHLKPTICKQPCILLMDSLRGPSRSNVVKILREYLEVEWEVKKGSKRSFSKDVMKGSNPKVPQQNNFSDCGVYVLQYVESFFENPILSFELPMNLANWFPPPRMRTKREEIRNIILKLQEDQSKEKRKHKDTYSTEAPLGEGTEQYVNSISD
Briefly: SAR Analysis of small molecule inhibitors of Sentrin-specific protease 6 (SENP6) using a Luminescent assay. [Related pubchem assays (depositor defined):AID2582, AID2599]. Type of assay: functional.

Assay [14] addresses T7, Sentrin-specific protease 8 (Homo sapiens, UniProt Q96LD8).
T7 sequence (Q96LD8 whole entry): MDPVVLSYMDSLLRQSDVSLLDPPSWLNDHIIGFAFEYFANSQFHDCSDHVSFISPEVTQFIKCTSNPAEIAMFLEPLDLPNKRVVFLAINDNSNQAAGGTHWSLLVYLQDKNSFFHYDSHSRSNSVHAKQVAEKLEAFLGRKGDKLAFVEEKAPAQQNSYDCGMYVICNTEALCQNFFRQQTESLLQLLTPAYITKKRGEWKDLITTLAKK
Briefly: SENP8 protease inhibitors, SAR follow-up, biochemical, luminescence (AID 504501). It counts as functional.

Sequence of Latent membrane protein 1 (P03230 whole entry): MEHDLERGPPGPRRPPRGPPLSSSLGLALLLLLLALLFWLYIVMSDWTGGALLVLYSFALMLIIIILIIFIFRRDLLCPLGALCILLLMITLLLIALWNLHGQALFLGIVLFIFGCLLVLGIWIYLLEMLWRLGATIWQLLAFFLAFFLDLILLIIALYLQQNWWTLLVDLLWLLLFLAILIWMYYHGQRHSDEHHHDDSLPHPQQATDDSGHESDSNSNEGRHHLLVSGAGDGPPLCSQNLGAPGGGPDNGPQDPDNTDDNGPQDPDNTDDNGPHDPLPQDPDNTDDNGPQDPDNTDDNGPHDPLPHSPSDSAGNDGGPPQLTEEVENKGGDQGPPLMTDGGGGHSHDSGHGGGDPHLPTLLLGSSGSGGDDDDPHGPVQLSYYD

For orientation: IC50 means the concentration needed to halve the response being measured. On to `O=C(OCC#CCSc1nnc(-c2cccc3ccccc23)o1)c1cccc2[nH]ccc12`, for which the IC50 in assay [1] is 14 µM (inactive); in [2] it was 1.39 µM (active); in assay [3] it was > 49.8 µM (inactive); in assay [4], 0.506 µM (active); in [5], > 66.2 µM (inactive); in assay [6], > 88.8 µM (inactive).
As a reminder, the AC50 is the concentration giving half of the maximal activity seen. In the case of `O=[N+]([O-])c1ccc(CN2CC=C(c3ccccc3)CC2)cc1`, the concentration at half-maximal activity (AC50) in [7] was 178 µM (active).
As usually defined, the CC50 is the concentration that lowers cell viability or growth by half. One may read the EC50 as the concentration giving half of the maximal effect. On to `c1coc(CNc2nc(N3CCCCC3)nc3ccccc23)c1`, for which, in assay [8], the half-maximal cytotoxic concentration (CC50) was 19.6 µM (active). The IC50 in assay [9] is 6.64 µM (active). Besides, the 50% effective concentration (EC50) in assay [10] is 1.79 µM (active).
As to `O=C(NCCCN1CCN(CCCNC(=O)c2cccc(Cl)c2)CC1)c1cccc(Cl)c1`, the EC50 in assay [10] was 9.44 µM (active).
`CCOc1ccc(C(=O)Nc2ccc3ccccc3c2)cc1Cl`: the IC50 in assay [11], in assay [12], in assay [13] and in [14] was > 99 µM (inactive) throughout.
Regarding `COc1cccc(/C=N/NC(=O)c2nnn(-c3nonc3N)c2CN(C)c2ccccc2)c1`, the IC50 in assay [1] is 5.95 µM (active); in assay [2], 5.39 µM (active); in [3] it was > 49.7 µM (inactive); in assay [4], 0.513 µM (active); in assay [5] it was > 66.2 µM (inactive); in assay [6], > 88.8 µM (inactive).
